Assay results: PubChem BioAssay AID1918952 (Molecular Pharmacology Branch, DTP, NCI, 2023)
pIC50: −log10 of the molar value.

System: LG0703-F948-PDC complex spheroid viability
Test: Anticancer human tumor LG0703-F948-PDC patient-derived lung adenocarcinoma cell line growth inhibition
Settings: for pIC50: curve of first compound; for viability, T/C: stronger effect = lower value; active = viability on the fitted dose curve at most 10% of control; inactive = the rest
Outline: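 Drug combinations with the LSD1 inhibitor iadademstat tested on tumor cells co-cultured as spheroids with endothelial cells and mesenchymal stem cells. Concentrations descended in half-log increments from clinical Cmax or 10 microM.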

[1] = second compound 0.1 µM, first compound 0.0316 µM
[2] = second compound 0.1 µM, first compound 0.1 µM
[3] = second compound 0.1 µM, first compound 0.316 µM
[4] = second compound 0.1 µM, first compound 1 µM
[5] = second compound 0.1 µM, first compound 3.16 µM
[6] = second compound 0.1 µM, first compound 10 µM
[7] = second compound 0.316 µM, first compound 0.0316 µM
[8] = second compound 0.316 µM, first compound 0.1 µM
[9] = second compound 0.316 µM, first compound 0.316 µM
[10] = second compound 0.316 µM, first compound 1 µM
[11] = second compound 0.316 µM, first compound 3.16 µM
[12] = second compound 0.316 µM, first compound 10 µM
[13] = second compound 1 µM, first compound 0.0316 µM
[14] = second compound 1 µM, first compound 0.1 µM
[15] = second compound 1 µM, first compound 0.316 µM
[16] = second compound 1 µM, first compound 1 µM
[17] = second compound 1 µM, first compound 3.16 µM
[18] = second compound 1 µM, first compound 10 µM
[19] = second compound 3.16 µM, first compound 0.0316 µM
[20] = second compound 3.16 µM, first compound 0.1 µM
[21] = second compound 3.16 µM, first compound 0.316 µM
[22] = second compound 3.16 µM, first compound 1 µM
[23] = second compound 3.16 µM, first compound 3.16 µM
[24] = second compound 3.16 µM, first compound 10 µM
[25] = second compound 10 µM, first compound 0.0316 µM
[26] = second compound 10 µM, first compound 0.1 µM
[27] = second compound 10 µM, first compound 0.316 µM
[28] = second compound 10 µM, first compound 1 µM
[29] = second compound 10 µM, first compound 3.16 µM
[30] = second compound 10 µM, first compound 10 µM
[31] = second compound 0.1 µM, first compound 0.00949 µM
[32] = second compound 0.1 µM, first compound 0.03 µM
[33] = second compound 0.1 µM, first compound 0.0949 µM
[34] = second compound 0.1 µM, first compound 0.3 µM
[35] = second compound 0.316 µM, first compound 0.00949 µM
[36] = second compound 0.316 µM, first compound 0.03 µM
[37] = second compound 0.316 µM, first compound 0.0949 µM
[38] = second compound 0.316 µM, first compound 0.3 µM
[39] = second compound 1 µM, first compound 0.00949 µM
[40] = second compound 1 µM, first compound 0.03 µM
[41] = second compound 1 µM, first compound 0.0949 µM
[42] = second compound 1 µM, first compound 0.3 µM
[43] = second compound 3.16 µM, first compound 0.00949 µM
[44] = second compound 3.16 µM, first compound 0.03 µM
[45] = second compound 3.16 µM, first compound 0.0949 µM
[46] = second compound 3.16 µM, first compound 0.3 µM
[47] = second compound 10 µM, first compound 0.00949 µM
[48] = second compound 10 µM, first compound 0.03 µM
[49] = second compound 10 µM, first compound 0.0949 µM
[50] = second compound 10 µM, first compound 0.3 µM
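Also: spheroids exposed to agents for seven days before readout.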
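For viability, T/C in this document: 100% = DMSO vehicle control wells as normalization base.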

CC1(C)CCC(CN2CCN(c3ccc(C(=O)NS(=O)(=O)c4ccc(NCC5CCOCC5)c([N+](=O)[O-])c4)c(Oc4cnc5[nH]ccc5c4)c3)CC2)=C(c2ccc(Cl)cc2)C1 + NC1CC1c1ccc(-c2cccc(O)c2)cc1
5.61: pIC50 (second compound 0.316 µM)
5.57: pIC50 (second compound 0.1 µM)
5.63: pIC50 (second compound 3.16 µM) | pIC50 (second compound 10 µM)
active: viability, T/C [6] 3.56% | viability, T/C [12] 3% | viability, T/C [18] 5.17% | viability, T/C [24] 3.01% | viability, T/C [30] 3.13%
5.58: pIC50 (second compound 1 µM)
inactive: viability, T/C [1] 98.2% | viability, T/C [2] 113% | viability, T/C [3] 111% | viability, T/C [4] 98% | viability, T/C [5] 42.8% | viability, T/C [7] 102% | viability, T/C [8] 103% | viability, T/C [9] 100% | viability, T/C [10] 103% | viability, T/C [11] 35.6% | viability, T/C [13] 106% | viability, T/C [14] 104% | viability, T/C [15] 111% | viability, T/C [16] 85.6% | viability, T/C [17] 43.8% | viability, T/C [19] 104% | viability, T/C [20] 81.7% | viability, T/C [21] 102% | viability, T/C [22] 111% | viability, T/C [23] 32.5% | viability, T/C [25] 103% | viability, T/C [26] 104% | viability, T/C [27] 93.9% | viability, T/C [28] 86.4% | viability, T/C [29] 38%

CC1COCCN1c1cc(C2(S(C)(=N)=O)CC2)nc(-c2ccnc3[nH]ccc23)n1 (stereo not given) + NC1CC1c1ccc(-c2cccc(O)c2)cc1
5.30: pIC50 (second compound 0.1 µM)
5.28: pIC50 (second compound 1 µM)
5.41: pIC50 (second compound 10 µM)
5.33: pIC50 (second compound 0.316 µM)
inactive: viability, T/C [1] 120% | viability, T/C [2] 104% | viability, T/C [3] 92.9% | viability, T/C [4] 92.1% | viability, T/C [5] 69.7% | viability, T/C [6] 24.1% | viability, T/C [7] 111% | viability, T/C [8] 101% | viability, T/C [9] 118% | viability, T/C [10] 97% | viability, T/C [11] 63.8% | viability, T/C [12] 23.6% | viability, T/C [13] 111% | viability, T/C [14] 97.9% | viability, T/C [15] 113% | viability, T/C [16] 102% | viability, T/C [17] 70.8% | viability, T/C [18] 23.4% | viability, T/C [19] 96% | viability, T/C [20] 89.8% | viability, T/C [21] 102% | viability, T/C [22] 79.5% | viability, T/C [23] 54.1% | viability, T/C [24] 22.4% | viability, T/C [25] 96.5% | viability, T/C [26] 98.9% | viability, T/C [27] 91.1% | viability, T/C [28] 79.7% | viability, T/C [29] 58.6% | viability, T/C [30] 14.8%
5.45: pIC50 (second compound 3.16 µM)

CCN(c1cc(-c2ccc(CN3CCOCC3)cc2)cc(C(=O)NCc2c(C)cc(C)[nH]c2=O)c1C)C1CCOCC1 + NC1CC1c1ccc(-c2cccc(O)c2)cc1
inactive: viability, T/C [31] 104% | viability, T/C [32] 113% | viability, T/C [33] 93.7% | viability, T/C [34] 105% | viability, T/C (second compound 0.1 µM, first compound 0.949 µM) 107% | viability, T/C (second compound 0.1 µM, first compound 3 µM) 105% | viability, T/C [35] 112% | viability, T/C [36] 93.9% | viability, T/C [37] 101% | viability, T/C [38] 93.6% | viability, T/C (second compound 0.316 µM, first compound 0.949 µM) 102% | viability, T/C (second compound 0.316 µM, first compound 3 µM) 94.9% | viability, T/C [39] 89.3% | viability, T/C [40] 98.8% | viability, T/C [41] 95.6% | viability, T/C [42] 96.2% | viability, T/C (second compound 1 µM, first compound 0.949 µM) 94.7% | viability, T/C (second compound 1 µM, first compound 3 µM) 93.2% | viability, T/C [43] 93.7% | viability, T/C [44] 95.6% | viability, T/C [45] 93.7% | viability, T/C [46] 85.1% | viability, T/C (second compound 3.16 µM, first compound 0.949 µM) 99.7% | viability, T/C (second compound 3.16 µM, first compound 3 µM) 95.2% | viability, T/C [47] 105% | viability, T/C [48] 91.9% | viability, T/C [49] 84.6% | viability, T/C [50] 81.6% | viability, T/C (second compound 10 µM, first compound 0.949 µM) 81.8% | viability, T/C (second compound 10 µM, first compound 3 µM) 86.1%
< 5.52: pIC50 (second compound 0.1 µM) | pIC50 (second compound 0.316 µM) | pIC50 (second compound 1 µM) | pIC50 (second compound 3.16 µM) | pIC50 (second compound 10 µM)

Nc1ncn(C2CC(O)C(CO)S2)c(=O)n1 (stereo not given) + NC1CC1c1ccc(-c2cccc(O)c2)cc1
< 6.52: pIC50 (second compound 0.1 µM) | pIC50 (second compound 0.316 µM) | pIC50 (second compound 1 µM) | pIC50 (second compound 3.16 µM) | pIC50 (second compound 10 µM)
inactive: viability, T/C (second compound 0.1 µM, first compound 0.000949 µM) 114% | viability, T/C (second compound 0.1 µM, first compound 0.003 µM) 102% | viability, T/C [31] 104% | viability, T/C [32] 108% | viability, T/C [33] 108% | viability, T/C [34] 86.2% | viability, T/C (second compound 0.316 µM, first compound 0.000949 µM) 106% | viability, T/C (second compound 0.316 µM, first compound 0.003 µM) 92.7% | viability, T/C [35] 91% | viability, T/C [36] 107% | viability, T/C [37] 102% | viability, T/C [38] 81.1% | viability, T/C (second compound 1 µM, first compound 0.000949 µM) 117% | viability, T/C (second compound 1 µM, first compound 0.003 µM) 105% | viability, T/C [39] 102% | viability, T/C [40] 108% | viability, T/C [41] 82.4% | viability, T/C [42] 84.8% | viability, T/C (second compound 3.16 µM, first compound 0.000949 µM) 114% | viability, T/C (second compound 3.16 µM, first compound 0.003 µM) 101% | viability, T/C [43] 90.8% | viability, T/C [44] 104% | viability, T/C [45] 100% | viability, T/C [46] 71.5% | viability, T/C (second compound 10 µM, first compound 0.000949 µM) 104% | viability, T/C (second compound 10 µM, first compound 0.003 µM) 94.7% | viability, T/C [47] 96.8% | viability, T/C [48] 105% | viability, T/C [49] 103% | viability, T/C [50] 77.4%
